Experimental data reported in patent publication EP3324923B1, “COMPOSITIONS AND METHODS USING PALYTHINE” (King's College London, priority 2015, dated 2017).

Tests used:
Format in all cases: cell-based, human
HaCaT keratinocytes [1] = experiment: Cell viability by neutral red uptake assay after irradiation; settings: 20J/cm2 of SSR; 0.3 %, 4 % or 10 % (w/v) palythine; 24 hrs later; n=3; p=<0.0001
Procedure: (§1) All assays were performed on HaCat cells grown as a 70-80 % confluent monolayer in multiwell plates. They were washed three times in PBS and covered with palythine dissolved in PBS at differing concentrations (0, 0.1, 0.3 %, 4 % and 10 % w/v). The cells were then irradiated with either SSR or UVA radiation (5-20 J/cm^2 or 20 J/cm^2 respectively). After irradiation the palythine solution was removed and the cells washed a further three times and replaced in media or processed immediately depending on the experimental design.
Cell viability was measured 24 hours post irradiation using the neutral red uptake assay. Neutral red solution (4µgml^-1 in growth medium) (Sigma, UK) was added to the cells and they were incubated at 37 °C, 5 % CO2 for 2 hrs. Cells were washed three times in PBS to remove excess neutral red solution and then the destain solution (50 % v/v ethanol, 49 % v/v ddH2O, 1 % v/v glacial acetic acid) was added. Optical density was measured at 540 nm.
HaCaT keratinocytes were untreated, exposed to 20J/cm2 of SSR with PBS alone, 0.3 % (w/v), 4 % (w/v) or 10 % (w/v) of palythine or 10 % (w/v) palythine without exposure to UVR. Cell viability was measured 24 hrs later by the neutral red assay. Columns represent the mean ± SD (n=3).

HaCaT keratinocytes [2] = experiment: Reactive oxygen species assay by FACS (carboxy-H2DCFDA), UV filtering and antioxidant effect, Example 16; settings: for ROS production compared to irradiated control: 20J/cm^2 of SSR, n=5, p<0.0001
Procedure: (§2) DNA damage was then measured using the comet assay and IHC-IF looking at the specific DNA lesions of cyclobutane pyrimidine dimers (CPD) and 8-oxoGua. A percentage reduction in general and specific DNA damage was then determined by comparing cells irradiated with and without sunscreen compositions. Antioxidant ability was detected using H2DCFDA, which fluoresces when reacting with ROS with the addition of palythine post exposure. SSR induced gene expression covering a range of different markers (inflammation, photoageing, oxidative damage) was assessed using qPCR. The ability of palythine to reduce this gene expression was then assessed.
as §1
HaCat cells were irradiated as above or for the anti-oxidant studies, cells were also incubated with palythine post irradiation. Cells were then incubated with 10uM carboxy-H2DCFDA (Invitrogen, UK) in PBS for 30 mins in the dark at 37 °C, 5 % CO2. Cells were washed in PBS, trypsinised for 10 minutes at 37 °C, centrifuged at 1200 rpm for 5 minutes at room temperature and resuspended in PBS and counterstained with DAPI for analysis by FACS. This was carried out with a Becton Dickinson FACSAria II. Cells were gated to only analyse live cells (DAPI negative) and the average mean green intensity per condition was then plotted from at least 10,000 measured events. Analysis was carried out using FlowJo 8.7 (USA).

HaCaT cells = experiment: UVR induced gene expression by qPCR (TaqMan, ΔΔCT)
Procedure: The gene expression analysis was performed on HaCat cells exposed as previously described. Following irradiation growth media was replaced RNA extraction was carried out 12 hours later. RNA extraction was carried out using the mirVana miRNA Isolation kit (Life Technologies, Paisley, UK) according to the manufacturers protocol for total RNA extraction. RNA quality was tested using RNA 6000 Nano Kit according to the manufacturers instruction.
Total RNA was then converted to cDNA using the High Capacity cDNA Reverse Transcription Kit (Applied Biosystems, Paisley, UK) according to manufacturers instructions. qPCR was performed using TaqMan Gene Expression Assays (Applied Biosystems) according to the manufacturers protocol with the following TaqMan FAM labelled DNA probes IL-20, IL-8, IL-6, TFRC, HMOX-1, MMP-3, MMP-12. VIC labelled GAPDH was used as the housekeeping gene. For each gene the fold change was measured using the ΔΔCT method.
Cells irradiated with 5J/cm^2 SSR with 0%, 0.3%, 4% and 10% palythine. RNA was extracted, cDNA synthesised, and gene expression analysed by qCR. […] The mean fold change ± SD was analysed with n≥3. The difference compared to 0% irradiated sample was analysed using ANOVA. Significance is expressed by *.
Cells irradiated with 5J/cm^2 SSR with 0%, 0.3% & 4% palythine or Helionori. RNA was extracted, cDNA synthesised, and gene expression analysed by qPCR. Data presented in figure 13 show the protection offered by palythine according to the invention compared with protection offered by prior art composition Helionori, as assessed by UVR induced gene expression.
as §2

[3] = Figure 8, RNA extraction 12 hours after irradiation, gene not responsive to UVR

COC1=C(NCC(=O)O)CC(O)(CO)CC1=N (stereo not shown) [palythine]
protection against UVR induced cell death (cell viability) (HaCaT keratinocytes [1]): significant protection
ROS production compared to irradiated control (HaCaT keratinocytes [2]; 10% palythine post exposure (anti-oxidant)): significant reduction
ROS production compared to irradiated control (HaCaT keratinocytes [2]; palythine 0.3-10%w/v added pre exposure): significant reduction
ROS production due to SSR irradiation (anti-oxidant properties) (HaCaT keratinocytes [2]; Example 14, H2DCFDA, addition of palythine post exposure, p=<0.05): significant reduction
protection, UVR induced gene expression (decrease compared to the irradiated control) (HaCaT cells; 0.3% palythine, 5J/cm^2 SSR, figure 13): significant protection
HMOX-1 gene expression (HaCaT cells; 0.3 % palythine, Figure 8, compared to the control): significantly reduced
MMP-12 gene expression compared to the control (HaCaT cells; [3]): no effect
TFRC gene expression compared to the control (HaCaT cells; [3]): no effect
expression of the genes compared to the irradiated control (containing no sunscreen) (HaCaT cells; IL-20, IL-6, IL-8, MMP-3, HMOX-1, 5J/cm^2 SSR, 0.3% & 4%): significant reduction
SSR induced differential gene expression for all markers investigated (HaCaT cells; palythine at 0.3% or greater, all concentrations, p=<0.05): significantly reduced
